Data published in patent publication US6414003B1, “Oxazolone derivatives and their use as anti-helicobacter pylori agents” (Takeda Chemical Industries, Ltd., priority 1996, dated 2002).
≈ marks a conversion by molar mass, not a printed value.

Experiments:
H. pylori CPY 433 = test: In vitro antimicrobial test (agar dilution method); assay type: cell-based, Helicobacter pylori; conditions: Brucella agar with 7% horse blood
[1] = tested on: Helicobacter pylori NCTC 11637; test: In vitro antimicrobial test (agar dilution method); assay type: cell-based; conditions: Brucella agar with 7% horse blood, 37° C., 4 days
H. pylori TN 2 = test: In vitro antimicrobial test (agar dilution method); assay type: cell-based, Helicobacter pylori; conditions: Brucella agar with 7% horse blood
H. pylori TN 58 = test: In vitro antimicrobial test (agar dilution method); assay type: cell-based, Helicobacter pylori; conditions: Brucella agar with 7% horse blood
[2] = tested on: Helicobacter pylori TN2GF4; test: In vivo antimicrobial activity test in infected mongolian gerbils; conditions: for Clearance Rate: mongolian gerbils infected with H. pylori TN2GF4; for Bacterial Detection: mean±standard deviation
Method: After mongolian gerbils (MGS/Sea, male, 6 weeks of age) were fasted for 24 hours, Helicobacter pylori TN2GF4 was inoculated to the stomach at 10^7.08 per mongolian gerbil. Starting at 11 days after infection, a 3, 10, 30, or 100 mg/kg suspension of the test compound in a 0.5% aqueous solution of methyl cellulose was orally administered twice daily (morning and evening) for 3 days. On the day after final administration, the stomach of each infected mongolian gerbil was excised and disrupted; a series of 10-fold dilutions of the stomach homogenate were each inoculated to modified Skirrow's medium supplemented with activated charcoal and cultured under microaerophilic conditions at 37° C. for 4 days, after which clearance effect was assessed on the basis of the presence or absence of bacterial growth. Bacterial cell counts are expressed in mean±standard deviation after Dunnett's test against the control group.
In Table 4, ** indicates p<0.01.

H. pylori NCTC 11916 = test: In vitro antimicrobial test (agar dilution method); assay type: cell-based, Helicobacter pylori; conditions: Brucella agar with 7% horse blood
Method: (§1) Using 5 strains of Helicobacter pylori, 19 other bacterial species and 2 yeast species as test strains, the antimicrobial activities of various compounds were determined by the method described below (agar dilution method). The test compound was dissolved in dimethyl sulfoxide; this solution was 2-fold diluted step by step with sterilized distilled water to yield test samples. Two milliliters of each test sample was mixed with 18 ml of Brucella agar supplemented with 7% horse blood as a medium to prepare a determination plate. Helicobacter pylori was subjected to shaking culture at 37° C. in a gas pack jar incorporating CampyPak™ (BBL^R Beckton Dickinson Microbiology Systems) for 20 hours, using Brucella broth medium supplemented with 2.5% fetal bovine serum, to yield a seed inoculum. The other test microorganisms were each cultured at 37° C. for 20 hours, using Brucella broth medium, to yield respective seed inocula.
Five microliters of each seed inoculum, previously adjusted to about 10^6 CFU/ml using Brucella broth medium supplemented with 2.5% fetal bovine serum was inoculated to each determination plate, and cultured at 37° C. in a gas pack jar incorporating CampyPak™ and water-soaked cotton absorbent for 4 days. […]

Bacillus cereus IFO 3514 = test: In vitro antimicrobial test (agar dilution method); assay type: cell-based; conditions: Brucella agar with 7% horse blood, 37° C., 4 days
Method: as §1
(§2) Five microliters of each seed inoculum, previously adjusted to about 10^6 CFU/ml using Brucella broth medium supplemented with 2.5% fetal bovine serum was inoculated to each determination plate, and cultured at 37° C. in a gas pack jar incorporating CampyPak™ and water-soaked cotton absorbent for 4 days. After cultivation, strain growth was macroscopically examined; the minimum concentration for the absence of strain growth was taken as the MIC value (minimum inhibitory concentration) of the test compound.

[3] = tested on: Proteus mirabilis ATCC 21100; test: In vitro antimicrobial test (agar dilution method); assay type: cell-based; conditions: Brucella agar with 7% horse blood, 37° C., 4 days
Method: as §1, §2

[4] = tested on: Salmonella typhimurium IFO 12529; test: In vitro antimicrobial test (agar dilution method); assay type: cell-based; conditions: Brucella agar with 7% horse blood, 37° C., 4 days
Method: as §1, §2

[5] = tested on: Klebsiella pneumoniae IFO 3317; test: In vitro antimicrobial test (agar dilution method); assay type: cell-based; conditions: Brucella agar with 7% horse blood, 37° C., 4 days
Method: as §1, §2

[6] = tested on: Micrococcus flavus IFO 3242; test: In vitro antimicrobial test (agar dilution method); assay type: cell-based; conditions: Brucella agar with 7% horse blood, 37° C., 4 days
Method: as §1, §2

[7] = tested on: Proteus morganii IFO 3168; test: In vitro antimicrobial test (agar dilution method); assay type: cell-based; conditions: Brucella agar with 7% horse blood, 37° C., 4 days
Method: as §1, §2

Escherichia coli K12 = test: In vitro antimicrobial test (agar dilution method); assay type: cell-based; conditions: Brucella agar with 7% horse blood, 37° C., 4 days
Method: as §1, §2

[8] = tested on: Escherichia coli NIHJ JC-2; test: In vitro antimicrobial test (agar dilution method); assay type: cell-based; conditions: Brucella agar with 7% horse blood, 37° C., 4 days
Method: as §1, §2

[9] = tested on: Saccharomyces cerevisiae IFO 0209; test: In vitro antimicrobial test (agar dilution method); assay type: cell-based; conditions: Brucella agar with 7% horse blood, 37° C., 4 days
Method: as §1, §2

[10] = tested on: Salmonella enteritidis IFO 3313; test: In vitro antimicrobial test (agar dilution method); assay type: cell-based; conditions: Brucella agar with 7% horse blood, 37° C., 4 days
Method: as §1, §2

[11] = tested on: Bacillus pumilus IFO 3813; test: In vitro antimicrobial test (agar dilution method); assay type: cell-based; conditions: Brucella agar with 7% horse blood, 37° C., 4 days
Method: as §1, §2

[12] = tested on: Pseudomonas aeruginosa IFO 3080; test: In vitro antimicrobial test (agar dilution method); assay type: cell-based; conditions: Brucella agar with 7% horse blood, 37° C., 4 days
Method: as §1, §2

[13] = tested on: Serratia marcescens IFO 3046; test: In vitro antimicrobial test (agar dilution method); assay type: cell-based; conditions: Brucella agar with 7% horse blood, 37° C., 4 days
Method: as §1, §2

[14] = tested on: Candida albicans IFO 0583; test: In vitro antimicrobial test (agar dilution method); assay type: cell-based; conditions: Brucella agar with 7% horse blood, 37° C., 4 days
Method: as §1, §2

[15] = tested on: Staphylococcus aureus FDA 209P; test: In vitro antimicrobial test (agar dilution method); assay type: cell-based; conditions: Brucella agar with 7% horse blood, 37° C., 4 days
Method: as §1, §2

[16] = tested on: Micrococcus luteus IFO 12708; test: In vitro antimicrobial test (agar dilution method); assay type: cell-based; conditions: Brucella agar with 7% horse blood, 37° C., 4 days
Method: as §1, §2

[17] = tested on: Alcaligenes faecalis IFO 13111; test: In vitro antimicrobial test (agar dilution method); assay type: cell-based; conditions: Brucella agar with 7% horse blood, 37° C., 4 days
Method: as §1, §2

[18] = tested on: Bacillus subtilis PCI 219; test: In vitro antimicrobial test (agar dilution method); assay type: cell-based; conditions: Brucella agar with 7% horse blood, 37° C., 4 days
Method: as §1, §2

[19] = tested on: Bacillus megaterium IFO 12108; test: In vitro antimicrobial test (agar dilution method); assay type: cell-based; conditions: Brucella agar with 7% horse blood, 37° C., 4 days
Method: as §1, §2

[20] = tested on: Proteus vulgaris IFO 3045; test: In vitro antimicrobial test (agar dilution method); assay type: cell-based; conditions: Brucella agar with 7% horse blood, 37° C., 4 days
Method: as §1, §2

[21] = tested on: Citrobater freundii IFO 12681; test: In vitro antimicrobial test (agar dilution method); assay type: cell-based; conditions: Brucella agar with 7% horse blood, 37° C., 4 days
Method: as §1, §2

[22] = 3 mg/kg orally twice daily for 3 days

`C[C@H](c1c[nH]c2ccccc12)[C@@H]1OC(N(C)C(=O)OCc2ccccc2)=NC1=O` [Example 2, (5S)-2-(N-Benzyloxycarbonyl-N-methyl)amino-5[(1R)-1-(indol-3-yl)ethyl]-2-oxazolin-4-one] showed an MIC (H. pylori CPY 433) of 0.05 µg/mL (≈ 0.128 µM), an MIC [1] of 0.025 µg/mL (≈ 0.0639 µM) and an MIC (H. pylori TN 2) of 0.025 µg/mL (≈ 0.0639 µM). It also gave an MIC (H. pylori TN 58) of 0.05 µg/mL (≈ 0.128 µM).

With `CN=C1NC(=O)[C@H]([C@H](C)c2c[nH]c3ccccc23)O1` [Indolmycin, indolmycin] the MIC (H. pylori CPY 433) was 0.013 µg/mL (≈ 0.0505 µM), the MIC [1] was 0.006 µg/mL (≈ 0.0233 µM) and the MIC (H. pylori TN 2) was 0.006 µg/mL (≈ 0.0233 µM). For the same compound, the “Clearance Rate” value [2, 22] was 0/5 (0) %, the “Bacterial Detection” value [2, 22] was 4.61 ± 1.84 log CFU/gastric wall and the “gastric bacterial cell count (in words)” value ([2]; 10 mg/kg or higher, mongolian gerbil) was “reduced the mongolian gerbil gastric bacterial cell count with dose dependency”. For the same compound, the “Clearance Rate” value ([2]; 10 mg/kg orally twice daily for 3 days) was 0/5 (0) %, the “Bacterial Detection” value ([2]; 10 mg/kg orally twice daily for 3 days, ** p<0.01 vs control) was 2.76 ± 1.04** log CFU/gastric wall and the “Clearance Rate” value ([2]; 30 mg/kg orally twice daily for 3 days) was 1/4 (25) %. For the same compound, the “Clearance Rate” value ([2]; 30 mg/kg orally twice daily for 3 days, listed as indolmycin) was 25%, the “Bacterial Detection” value ([2]; 30 mg/kg orally twice daily for 3 days, ** p<0.01 vs control) was 1.96 ± 0.78** log CFU/gastric wall and the “Clearance Rate” value ([2]; 100 mg/kg orally twice daily for 3 days) was 4/5 (80) %. The “Clearance Rate” value ([2]; 100 mg/kg orally twice daily for 3 days, listed as indolmycin) was 80%, the “Bacterial Detection” value ([2]; 100 mg/kg orally twice daily for 3 days, ** p<0.01 vs control) was 1.48 ± 0.00** log CFU/gastric wall and the MIC (H. pylori TN 58) was 0.025 µg/mL (≈ 0.0972 µM). The MIC (H. pylori NCTC 11916) was 0.013 µg/mL (≈ 0.0505 µM), the MIC (Bacillus cereus IFO 3514) was greater than 100 µg/mL and the MIC [3] was greater than 100 µg/mL. For the same compound, the MIC [4] was greater than 100 µg/mL, the MIC [5] was greater than 100 µg/mL and the MIC [6] was greater than 100 µg/mL. It also gave an MIC [7] greater than 100 µg/mL, an MIC (Escherichia coli K12) greater than 100 µg/mL and an MIC [8] greater than 100 µg/mL. It also gave an MIC [9] greater than 100 µg/mL, an MIC [10] greater than 100 µg/mL and an MIC [11] greater than 100 µg/mL. It also gave an MIC [12] greater than 100 µg/mL, an MIC [13] greater than 100 µg/mL and an MIC [14] greater than 100 µg/mL. For the same compound, the MIC [15] was greater than 100 µg/mL, the MIC [16] was 12.5 µg/mL (≈ 48.6 µM) and the MIC [17] was greater than 100 µg/mL. It also gave an MIC [18] greater than 100 µg/mL, an MIC [19] greater than 100 µg/mL and an MIC [20] greater than 100 µg/mL. For the same compound, the MIC [21] was greater than 100 µg/mL.
